# Values quoted from earlier work, collected in PMC5572576 (The Lancet. Oncology, 2017).
# Read-outs that look alike come from different tables or passages of the source.
# Columns and labels:
# [1] = tested on: patients with R/R AML; details: cited from earlier work
# [2] = tested on: patients with R/R AML; details: cited from earlier work; remark: listed apart in the source
# [3] = tested on: patients with newly diagnosed AML aged <60 years; details: added to intensive chemotherapy; cited from earlier work
smiles,measurement,setting,value
CO[C@@H]1[C@H](N(C)C(=O)c2ccccc2)C[C@H]2O[C@]1(C)n1c3ccccc3c3c4c(c5c6ccccc6n2c5c31)C(=O)NC4 [midostaurin],CR,[1],CR was not achieved
same,Patients with a reduction in blast counts,[1]; patients with FLT3WT,42%
same,Patients with a reduction in blast counts,[1]; patients with FLT3 mutations,71%
CC(C)(C)c1cc(NC(=O)Nc2ccc(-c3cn4c(n3)sc3cc(OCCN5CCOCC5)ccc34)cc2)no1 [quizartinib],Median OS,[2]; FLT3-ITD subgroup,18 weeks
same,Median OS,[2]; entire study population,14 weeks
CNC(=O)c1cc(Oc2ccc(NC(=O)Nc3ccc(Cl)c(C(F)(F)F)c3)cc2)ccn1 [sorafenib],3-year event-free survival (EFS) rate,[3],40%
